What all share (assay): biochemical
Holding throughout (parameters): Fluorogenic phosphatase assay, DiFMUP hydrolysis by recombinant PTPs, initial velocity, Ex/Em 355/460 nm
Details in all cases: read-out: Inhibition by 20 µM polyphyllin D (%)

Experiment [1] concerns the target T1, SHP2 (Homo sapiens, UniProt Q06124).
T1 construct: gene PTPN11
T1 sequence (Q06124 1-526): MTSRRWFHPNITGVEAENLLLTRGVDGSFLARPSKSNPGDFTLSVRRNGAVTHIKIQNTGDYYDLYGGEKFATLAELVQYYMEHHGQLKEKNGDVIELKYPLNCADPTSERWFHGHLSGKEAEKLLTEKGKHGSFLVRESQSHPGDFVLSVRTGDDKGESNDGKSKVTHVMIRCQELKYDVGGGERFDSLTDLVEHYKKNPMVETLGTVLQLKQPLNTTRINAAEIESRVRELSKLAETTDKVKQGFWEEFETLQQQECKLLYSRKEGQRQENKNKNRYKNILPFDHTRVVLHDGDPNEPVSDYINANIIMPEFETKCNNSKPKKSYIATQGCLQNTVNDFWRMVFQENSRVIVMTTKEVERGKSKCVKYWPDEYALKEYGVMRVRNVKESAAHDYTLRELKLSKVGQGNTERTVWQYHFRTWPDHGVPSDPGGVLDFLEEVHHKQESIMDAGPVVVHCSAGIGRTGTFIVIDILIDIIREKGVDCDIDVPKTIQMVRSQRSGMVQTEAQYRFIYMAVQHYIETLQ

Experiment [2] has as its target T2, PTPN21 (PTPD1) (Homo sapiens, UniProt Q16825).
T2 construct: 839-1174
T2 sequence (Q16825 1-1174): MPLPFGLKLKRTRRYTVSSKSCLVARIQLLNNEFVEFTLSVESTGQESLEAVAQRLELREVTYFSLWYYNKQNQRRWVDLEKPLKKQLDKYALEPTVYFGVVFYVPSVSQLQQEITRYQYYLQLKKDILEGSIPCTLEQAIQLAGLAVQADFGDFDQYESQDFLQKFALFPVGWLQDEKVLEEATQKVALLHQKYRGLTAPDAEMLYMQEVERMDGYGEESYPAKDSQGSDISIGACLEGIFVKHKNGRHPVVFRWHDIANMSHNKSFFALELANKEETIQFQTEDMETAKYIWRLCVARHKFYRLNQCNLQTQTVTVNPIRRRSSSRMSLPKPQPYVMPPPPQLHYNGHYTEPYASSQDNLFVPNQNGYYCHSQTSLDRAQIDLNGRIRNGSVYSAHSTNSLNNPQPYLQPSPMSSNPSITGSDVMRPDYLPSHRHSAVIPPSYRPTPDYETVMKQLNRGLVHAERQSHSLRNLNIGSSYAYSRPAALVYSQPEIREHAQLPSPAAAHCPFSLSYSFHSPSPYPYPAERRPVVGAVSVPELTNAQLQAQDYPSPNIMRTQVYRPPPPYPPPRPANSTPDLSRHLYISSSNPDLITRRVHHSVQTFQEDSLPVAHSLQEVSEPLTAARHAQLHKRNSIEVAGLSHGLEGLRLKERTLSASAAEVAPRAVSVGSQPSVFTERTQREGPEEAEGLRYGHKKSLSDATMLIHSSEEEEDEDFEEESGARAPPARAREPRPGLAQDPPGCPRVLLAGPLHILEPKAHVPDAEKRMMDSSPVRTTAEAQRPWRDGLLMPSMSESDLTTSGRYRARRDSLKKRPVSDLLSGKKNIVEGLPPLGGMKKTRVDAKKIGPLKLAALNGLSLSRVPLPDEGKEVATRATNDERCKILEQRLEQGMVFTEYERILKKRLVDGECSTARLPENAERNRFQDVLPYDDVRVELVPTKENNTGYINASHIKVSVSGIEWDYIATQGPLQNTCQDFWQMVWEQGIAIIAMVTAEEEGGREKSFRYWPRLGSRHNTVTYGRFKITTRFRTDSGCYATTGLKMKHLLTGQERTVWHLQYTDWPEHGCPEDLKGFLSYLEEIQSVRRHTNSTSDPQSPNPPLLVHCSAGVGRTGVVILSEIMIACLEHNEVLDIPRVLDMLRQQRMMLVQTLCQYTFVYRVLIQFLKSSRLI

For experiment [3], the target named is T3, SHP1 (Homo sapiens, UniProt P29350).
T3 construct: gene PTPN6

Among the data in paper PMC7915588, “Polyphyllin D Shows Anticancer Effect through a Selective Inhibition of Src Homology Region 2-Containing Protein Tyrosine Phosphatase-2 (SHP2)” (Molecules, 2021) are inhibition values, retold here.

T3 sequence (P29350 whole entry): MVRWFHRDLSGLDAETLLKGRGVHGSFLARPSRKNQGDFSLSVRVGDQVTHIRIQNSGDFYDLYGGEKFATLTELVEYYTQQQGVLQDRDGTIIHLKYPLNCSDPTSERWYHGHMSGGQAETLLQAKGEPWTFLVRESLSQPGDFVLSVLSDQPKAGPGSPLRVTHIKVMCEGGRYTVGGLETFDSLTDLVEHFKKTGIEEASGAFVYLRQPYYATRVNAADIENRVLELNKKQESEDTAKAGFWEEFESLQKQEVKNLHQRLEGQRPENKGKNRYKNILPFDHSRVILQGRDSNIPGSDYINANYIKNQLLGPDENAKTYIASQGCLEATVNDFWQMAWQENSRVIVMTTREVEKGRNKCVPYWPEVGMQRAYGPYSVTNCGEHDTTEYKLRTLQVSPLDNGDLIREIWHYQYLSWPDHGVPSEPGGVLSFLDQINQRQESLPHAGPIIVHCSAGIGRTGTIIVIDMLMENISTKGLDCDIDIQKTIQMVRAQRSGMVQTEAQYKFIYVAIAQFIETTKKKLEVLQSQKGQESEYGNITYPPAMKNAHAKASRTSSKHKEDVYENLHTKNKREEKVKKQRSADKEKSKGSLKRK

The inhibition is the percentage by which the read-out fell short of the control. As for `C[C@@H]1CC[C@@]2(OC1)O[C@H]1C[C@H]3[C@@H]4CC=C5C[C@@H](O[C@@H]6O[C@H](CO)[C@@H](O[C@@H]7O[C@@H](CO)[C@H](O)[C@H]7O)[C@H](O)[C@H]6O[C@@H]6O[C@@H](C)[C@H](O)[C@@H](O)[C@H]6O)CC[C@]5(C)[C@H]4CC[C@]3(C)[C@H]1[C@@H]2C` [polyphyllin D], the results for the inhibition at 20 µM in experiment [1], in experiment [2] and in experiment [3] were 85.6%, 20.5% and 0.1%, respectively.
